l = locked nucleic acid (LNA); d = 2'-deoxy (DNA)
Assays:
lnc-HLX-2-7 [1] = assay: qPCR of lnc-HLX-2-7 and MYC expression in JQ1-treated mouse xenografts; format: in vivo, NOD-SCID mice; conditions: JQ1 50 mg/kg intraperitoneal on alternating days for 14 days vs DMSO
From the text: (§1) Quantitative real-time PCR (qRT-PCR). Total RNA was purified using the Direct-zol RNA Miniprep kit (Zymo Research, Irvine, CA). To obtain RNA from xenografts, tumor tissues were pulverized and then used for purification.
Medulloblastoma xenografts (intracranial). All mouse studies were approved and performed in accordance with the policies and regulations of the Animal Care and Use Committee of Johns Hopkins University. Intracranial MB xenografts were established by injecting D425 Med cells, MED211 cells, D425 Med cells with lnc-HLX-2-7 deleted, and MED211 cells with lnc-HLX-2-7 deleted into the cerebellums of NOD-SCID mice (Jackson Laboratory, Bar Harbor, ME). Cerebellar coordinates were −2 mm from lambda, +1 mm laterally, and 1.5 mm deep. Seven days after injection, mice were administered JQ1 (50 mg/kg) or vehicle alone (DMSO) on alternating days via intraperitoneal injection for 14 days. Tumor growth was evaluated by weekly bioluminescence imaging using an in vivo spectral imaging system (IVIS Lumina II, Xenogen, Alameda, CA).

lnc-HLX-2-7 [2] = assay: qRT-PCR of lnc-HLX-2-7 expression in MB cells; format: cell-based, human
Procedure: (§2) Cell culture. Cell lines were authenticated using single tandem repeat profiling. D425 Med cells were cultured in DMEM/F12 with 10% serum and 1% glutamate/penicillin/streptomycin. MED211 cells were cultured in medium composed of 30% Ham's F12/70% DMEM, 1% antibiotic antimycotic, […] B27 supplement, 5 μg/mL heparin, 20 ng/mL EGF, and 20 ng/mL FGF2. DAOY cells were cultured in DMEM with 10% serum and 1% glutamate/penicillin/streptomycin. All cells were grown in a humidified incubator at 37° C., 5% CO2. For blocking of BET bromodomain protein in D425 Med and MED211 cells, JQ1 (SML1524-5MG, Sigma Aldrich, St. Louis, MO) was added, and the medium was changed every other day.
as §1
(§3) ASO-lnc-HLX2-7. Antisense oligonucleotides (ASOs) were designed using the Integrated DNA Technologies (IDT) Antisense Design Tool (IDT, Coralville, IA). ASO knockdowns were performed with 50 nM (final concentration) locked nucleic acid (LNA) GapmeRs transfected with Lipofectamine 3000 (Thermo Fisher Scientific, Waltham, MA). All ASOs were modified with phosphorothioate (PS) linkages. The following ASOs were used: ASO targeting lnc-HLX-2-7 (ASO-lnc-HLX-2-7): +T*+G*+A*G*A*G*A*T*T*A*A*T*C*T*A*G*A*T*+T*+G*+C (SEQ ID NO:240) and control ASO targeting luciferase (ASO-Luc): +T*+C*+G*A*A*G*T*A*C*T*C*A*G*C*G*T*A*A*+G*+T*+T (SEQ ID NO:241). The PS linkages are indicated with * and LNA-modified oligonucleotides are indicated with +.
(§4) siRNA-mediated knockdown of HLX, MYC, and MY CN. siRNAs targeting HLX (catalog no. 4427037, ID: s6639) and MYC (catalog no. 4427037, ID: s9129) were purchased from Thermo Fisher Scientific. siRNAs were transfected at 20 nM for 48 h using Lipofectamine RNAiMAX (Thermo Fisher Scientific). The efficiency was determined by qRT-PCR.

MYC = assay: qRT-PCR of MYC expression in MB cells; format: cell-based, human; conditions: JQ1 100 or 300 nM, relative to DMSO-treated cells
Procedure: as §2, §1, §4

[3] = test system: various types of cancer including MB; conditions: by inhibiting BRD4-mediated regulation of MYC; previous studies; cited from earlier work
MED211 cells [4] = assay: Cell proliferation, living cells counted by trypan blue staining; format: cell-based, human
Procedure: as §2
(§5) Cell proliferation, apoptosis, and 3D colony formation assays. Cells were plated in 96-well plates at 5×10^3 cells per well in triplicate. After 72 hours of ASO or siRNA transfection, living cells were counted by trypan blue staining. Apoptotic cells were analyzed using a GloMax luminometer (Promega, Fitchburg, WI) with conditions optimized for the Caspase-Glo 3/7 Assay. For the 3D colony formation assay, cells were seeded in 24-well plates at a density of 1×10^2 cells/well and were stained with crystal violet solution approximately 14 days later. Colony number was determined using the EVE cell counter (Nano Entek, Pleasanton, CA), and staining intensity was analyzed using ImageJ software.

D425 Med cells [5] = assay: as above; format: cell-based, human
Procedure: as §2, §5

MED211 cells [6] = assay: Apoptosis, Caspase-Glo 3/7 Assay; format: cell-based, human; conditions: ASO 50 nM, p<0.01
Procedure: as §5

D425 Med cells [7] = assay: Apoptosis, Caspase-Glo 3/7 Assay; format: cell-based, human; conditions: ASO 50 nM, p<0.01
Procedure: as §5

HLX = assay: qRT-PCR of HLX expression in MB cells; format: cell-based, human; conditions: ASO 50 nM
Procedure: as §1, §3, §4

Cc1sc2c(c1C)C(c1ccc(Cl)cc1)=N[C@@H](CC(=O)OC(C)(C)C)c1nnc(C)n1-2 [JQ1]
lnc-HLX2-7 expression in vivo (lnc-HLX-2-7 [1]): downregulation
lnc-HLX-2-7 expression (lnc-HLX-2-7 [2]; D425 Med cells, JQ1 100 or 300 nM, relative to DMSO-treated cells): downregulated
lnc-HLX-2-7 expression (lnc-HLX-2-7 [2]; MED211 cells, JQ1 100 or 300 nM, relative to DMSO-treated cells): downregulated
lnc-HLX2-7 expression (summary statement) (lnc-HLX-2-7 [2]; no cell line named at the place): reduced
MYC expression (MYC; D425 Med cells): downregulated
MYC expression (MYC; MED211 cells): downregulated
cancer cell proliferation [3]: effectively suppresses
cell growth (viable cell numbers) (MED211 cells [4]; MED211 cells treated with JQ1, relative to DMSO (FIG. 11B), suppressed by lnc-HLX-2-7 overexpression): cell growth inhibition
cell growth (viable cell numbers) (D425 Med cells [5]; D425 Med cells treated with JQ1, relative to DMSO (FIG. 11B), suppressed by lnc-HLX-2-7 overexpression): cell growth inhibition

ASO-lnc-HLX-2-7: LNA GapmeR antisense oligonucleotide with phosphorothioate linkages targeting lnc-HLX-2-7: +T*+G*+A*G*A*G*A*T*T*A*A*T*C*T*A*G*A*T*+T*+G*+C (antisense TGAGAGATTAATCTAGATTGC; sugars from the 5' end l3 d15 l3, all phosphorothioate, methylation of C not given here)
apoptosis (apoptotic cell numbers) (MED211 cells [6]): induced apoptosis
apoptosis (apoptotic cell numbers) (D425 Med cells [7]): induced apoptosis
HLX expression (HLX; D425 Med cells): significantly reduced
HLX expression (HLX; MED211 cells): significantly reduced
lnc-HLX-2-7 expression (lnc-HLX-2-7 [2]; D425 Med cells, ASO 50 nM, compared to control ASO-luc, p<0.01): significantly decreased
lnc-HLX-2-7 expression (lnc-HLX-2-7 [2]; MED211 cells, ASO 50 nM, compared to control ASO-luc, p<0.01): significantly decreased
MB cell growth (viable cell numbers) (MED211 cells [4]; MED211 cells, ASO 50 nM, 72 hours after transfection, p<0.01): significantly suppressed
MB cell growth (viable cell numbers) (D425 Med cells [5]; D425 Med cells, ASO 50 nM, 72 hours after transfection, p<0.01): significantly suppressed

— US12624398B2, “Use of long non-coding RNAs in medulloblastoma” (THE JOHNS HOPKINS UNIVERSITY, priority 2019, dated 2026)
